Measurements taken from article PMC9033141, “Beta and Gamma Amino Acid-Substituted Benzenesulfonamides as Inhibitors of Human Carbonic Anhydrases” (Pharmaceuticals, 2022).
Read-outs that look alike come from different tables or passages of the source.

How the values were obtained:
CAXIII [1] = target: T1, CAXIII (Homo sapiens, UniProt Q8N1Q1); conditions: read-out: Observed Dissociation Constant (Kd_obs), CAXIII; FTSA, pH 7.0, 37 °C; taken from previous publication; cited from earlier work;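 on Intrinsic Gibbs energy change (ΔGint), CAXIII: recombinant human CAXIII melting temperature tracked by ANS fluorescence in thermal shift assay, Tm fitted against ligand concentration, intrinsic value corrects Kd for deprotonated sulfonamide and Zn-bound water fractions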
T1 sequence (Q8N1Q1 whole entry): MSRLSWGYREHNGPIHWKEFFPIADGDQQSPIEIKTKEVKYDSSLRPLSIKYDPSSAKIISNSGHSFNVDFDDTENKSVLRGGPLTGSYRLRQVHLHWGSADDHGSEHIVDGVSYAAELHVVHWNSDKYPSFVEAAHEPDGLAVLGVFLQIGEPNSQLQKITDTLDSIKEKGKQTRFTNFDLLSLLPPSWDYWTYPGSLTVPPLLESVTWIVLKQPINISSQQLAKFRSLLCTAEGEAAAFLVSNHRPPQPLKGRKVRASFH

CAII [2] = target: T2, CAII (Homo sapiens, UniProt P00918); conditions: FTSA, pH 7.0, 37 °C; taken from previous publication; read-out: Observed Dissociation Constant (Kd_obs), CAII; cited from earlier work;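 on Intrinsic Gibbs energy change (ΔGint), CAII: recombinant human CAII, thermal shift with ANS dye fluorescence, Kd_obs from fitting melting temperature versus ligand concentration, intrinsic values corrected for deprotonated sulfonamide and Zn-bound water fractions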
T2 construct: made in house; host or cells: E. coli

CAXII [3] = target: T3, CAXII (Homo sapiens, UniProt O43570); conditions: FTSA, pH 7.0, 37 °C; taken from previous publication; read-out: Observed Dissociation Constant (Kd_obs), CAXII; cited from earlier work;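 on Intrinsic Gibbs energy change (ΔGint), CAXII: recombinant CAXII made in E. coli, ANS-fluorescence thermal shift with affinity fitted from Tm versus ligand concentration, intrinsic energy from Kd_obs corrected for deprotonated sulfonamide and Zn-water fractions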
T3 construct: made in house; host or cells: E. coli
T3 sequence (O43570 25-354): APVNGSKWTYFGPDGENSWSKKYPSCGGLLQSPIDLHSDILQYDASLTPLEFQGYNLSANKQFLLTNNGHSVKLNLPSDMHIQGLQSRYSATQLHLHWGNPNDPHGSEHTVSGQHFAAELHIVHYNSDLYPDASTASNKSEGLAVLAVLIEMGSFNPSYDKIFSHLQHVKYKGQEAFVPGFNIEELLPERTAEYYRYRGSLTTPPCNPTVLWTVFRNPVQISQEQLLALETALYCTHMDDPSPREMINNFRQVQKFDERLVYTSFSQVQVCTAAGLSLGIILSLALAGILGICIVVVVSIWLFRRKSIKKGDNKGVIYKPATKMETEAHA

CAIX [4] = target: T4, CAIX (Homo sapiens, UniProt Q16790); conditions: FTSA, pH 7.0, 37 °C; taken from previous publication; read-out: Observed Dissociation Constant (Kd_obs), CAIX; cited from earlier work
T4 construct: made in house

CAI [5] = target: T5, CAI (Homo sapiens, UniProt P00915); conditions: FTSA, pH 7.0, 37 °C; taken from previous publication; read-out: Observed Dissociation Constant (Kd_obs), CAI; cited from earlier work;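 on Intrinsic Gibbs energy change (ΔGint), CAI: human CAI expressed in E. coli, ANS fluorescence thermal shift with Kd fitted from melting temperature versus ligand concentration, intrinsic values correct for deprotonated sulfonamide and Zn-water CA fractions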
T5 construct: made in house; host or cells: E. coli
T5 sequence (P00915 whole entry): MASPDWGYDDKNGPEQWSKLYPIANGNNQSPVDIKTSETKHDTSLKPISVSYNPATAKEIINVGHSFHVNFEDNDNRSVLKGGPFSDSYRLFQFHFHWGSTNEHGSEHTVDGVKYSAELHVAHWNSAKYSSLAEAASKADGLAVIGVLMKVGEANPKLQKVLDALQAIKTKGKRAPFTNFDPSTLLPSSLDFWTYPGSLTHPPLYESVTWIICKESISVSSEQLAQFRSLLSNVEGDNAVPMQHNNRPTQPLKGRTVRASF

CAII [6] = target: T2, CAII; assay: biochemical; type: binding
Experimental: (§1) Human CA isozymes were expressed in E. coli (CAI, II, III, IV, VA, VB, VII, XII, XIII, XIV) or mammalian cells (CAVI and CAIX), chromatographically purified following the published protocols [47], and stored at −80 °C. The protein concentration was determined by UV absorption at 280 nm using Beer–Lambert law.
(§2) The QIAGEN Rotor-Gene Q was used to carry out the experiments, with a blue channel used for excitation (365 nm) and detection (460 nm). FTSA in this case relies on an extrinsic probe, 8-anilino-1-naphthalenesulfonate (ANS), to detect the fluorescence increase during protein denaturation, from which protein melting temperature (Tm) can be determined. […] The observed affinity of ligands for CAs was determined by plotting the Tm as a function of ligand concentration and then fitting a curve as described previously [48]. […] Samples were heated from 25 °C to 99 °C at the speed of 1 °C/min.
(§3) The intrinsic thermodynamic parameters were calculated as described in [40]. The intrinsic reaction of inhibitor binding to CA is shown in Equation (1).
(§4) When calculating Kd_int values, these protein and ligand fractions from Equation (1) have to be accounted for (Equations (2) and (3)). The intrinsic dissociation constant is calculated by multiplying Kd_obs value by the corresponding fractions of protein and ligand (Equation (4)). (2) fRSO2NH^−=10^pH−pKa_RSO2NH2/1+10^pH−pKa_RSO2NH2 (3) fCAZnH2O=1−10^pH−pKa_CAZnH2O/1+10^pH−pKa_CAZnH2O (4) Kd_int=Kd_obs×fRSO2NH^−×fCAZnH2O (5) ΔGint0=RTlnKd_int
(§5) The intrinsic standard Gibbs energy changes upon binding were calculated using Equation (5). Here, R—universal ideal gas constant (8.3144 J/mol·K), T—absolute temperature (310.15 K).

CAI [7] = target: T5, CAI; assay: biochemical; type: binding
CAXIII [8] = target: T1, CAXIII; conditions: 37 °C; calculated (Equation 5)
CAXIII [9] = target: T1, CAXIII; assay: biochemical; conditions: Observed Dissociation Constant (Kd_obs), FTSA, pH 7.0, 37 °C
CAIII = target: T6, CAIII (Homo sapiens, UniProt P07451); assay: Fluorescent thermal shift assay (FTSA), CAIII; type: binding; conditions: FTSA, pH 7.0, 37 °C; read-out: Observed Dissociation Constant (Kd_obs), CAIII
T6 construct: made in house; host or cells: E. coli
T6 sequence (P07451 whole entry): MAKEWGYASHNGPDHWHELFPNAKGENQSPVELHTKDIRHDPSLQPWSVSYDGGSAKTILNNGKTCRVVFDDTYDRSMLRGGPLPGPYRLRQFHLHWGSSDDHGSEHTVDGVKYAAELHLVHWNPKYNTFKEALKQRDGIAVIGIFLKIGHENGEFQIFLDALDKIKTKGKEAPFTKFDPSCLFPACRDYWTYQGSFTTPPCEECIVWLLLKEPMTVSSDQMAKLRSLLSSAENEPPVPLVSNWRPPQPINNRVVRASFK
Experimental: as §1, §2
(§6) The intrinsic thermodynamic parameters were calculated as described in [40]. The intrinsic reaction of inhibitor binding to CA is shown in Equation (1). […] It is known that CA proteins bind sulfonamides only when water molecules are coordinated to the Zn(II) ion, and sulfonamides only bind to CA proteins when their amino group is deprotonated (confirmed by neutron crystallography [53, 54, 55]):(1) CA Zn^II−H2O+RSO2NH^−⇄ CA Zn^II−NH SO2R+H2O
as §4, §5

CAVB = target: T7, CAVB (Homo sapiens, UniProt Q9Y2D0); assay: Fluorescent thermal shift assay (FTSA), CAVB; type: binding
T7 construct: made in house; host or cells: E. coli
T7 sequence (Q9Y2D0 34-317): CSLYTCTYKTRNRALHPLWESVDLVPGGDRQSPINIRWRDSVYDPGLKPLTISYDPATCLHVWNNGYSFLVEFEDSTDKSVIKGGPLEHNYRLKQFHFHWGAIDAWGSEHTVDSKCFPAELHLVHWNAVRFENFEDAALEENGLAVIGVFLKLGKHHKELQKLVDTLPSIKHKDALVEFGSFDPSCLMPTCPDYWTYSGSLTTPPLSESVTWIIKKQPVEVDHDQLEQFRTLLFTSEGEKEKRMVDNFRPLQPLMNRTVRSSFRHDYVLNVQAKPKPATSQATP
Experimental: as §1, §2, §6, §4, §5

CAVII = target: T8, CAVII (Homo sapiens, UniProt P43166); assay: Fluorescent thermal shift assay (FTSA), CAVII; type: binding
T8 construct: made in house; host or cells: E. coli
T8 sequence (P43166 whole entry): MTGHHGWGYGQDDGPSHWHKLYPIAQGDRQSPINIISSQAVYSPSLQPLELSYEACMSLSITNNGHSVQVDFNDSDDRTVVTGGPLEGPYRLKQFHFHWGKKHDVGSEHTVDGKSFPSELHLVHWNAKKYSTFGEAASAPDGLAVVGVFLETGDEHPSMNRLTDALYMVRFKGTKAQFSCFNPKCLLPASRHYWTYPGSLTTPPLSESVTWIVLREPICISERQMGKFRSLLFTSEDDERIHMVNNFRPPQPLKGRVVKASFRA
Experimental: as §1, §2, §6, §4, §5

CAVA = target: T9, CAVA (Homo sapiens, UniProt P35218); assay: Fluorescent thermal shift assay (FTSA), CAVA; type: binding
T9 construct: made in house; host or cells: E. coli
T9 sequence (P35218 39-305): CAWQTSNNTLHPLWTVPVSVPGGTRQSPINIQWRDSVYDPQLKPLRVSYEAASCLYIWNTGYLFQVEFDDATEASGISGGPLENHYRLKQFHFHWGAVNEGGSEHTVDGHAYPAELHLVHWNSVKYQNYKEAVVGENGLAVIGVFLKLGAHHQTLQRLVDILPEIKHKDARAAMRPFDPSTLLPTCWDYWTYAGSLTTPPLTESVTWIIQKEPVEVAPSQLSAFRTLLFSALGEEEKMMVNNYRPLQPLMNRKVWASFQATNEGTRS

CAIV = target: T10, CAIV (Homo sapiens, UniProt P22748); assay: Fluorescent thermal shift assay (FTSA), CAIV; type: binding;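 further: recombinant human enzyme, thermal denaturation followed by ANS fluorescence, melting temperature versus ligand concentration fitted for Kd_obs, intrinsic value corrected for deprotonated sulfonamide and Zn-bound water fractions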
T10 construct: made in house; host or cells: E. coli
T10 sequence (P22748 19-312): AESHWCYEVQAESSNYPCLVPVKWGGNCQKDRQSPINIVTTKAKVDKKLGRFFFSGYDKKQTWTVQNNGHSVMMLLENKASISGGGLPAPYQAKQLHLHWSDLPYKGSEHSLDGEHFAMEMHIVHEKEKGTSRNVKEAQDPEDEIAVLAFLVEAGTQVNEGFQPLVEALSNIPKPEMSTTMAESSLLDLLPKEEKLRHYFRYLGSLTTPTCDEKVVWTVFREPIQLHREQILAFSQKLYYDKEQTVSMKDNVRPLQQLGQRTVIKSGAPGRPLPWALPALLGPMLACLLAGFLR

[10] = Determination of compound sulfonamide group pKa (UV-Vis spectra at different pH); type: physicochemical; conditions: universal buffer; spectrophotometric, 37 °C; read-out: Sulfonamide pKa
Experimental: To calculate the intrinsic thermodynamic parameters of compound binding to CA isozymes, the pKa values of the sulfonamide group and the water molecule bound to the Zn(II) ion at the active site of CA proteins had to be determined. The pKa values for CA isozyme-bound water molecules were taken from, CAI—8.1; CAII—6.9; CAIII—6.5; CAIV—6.6; CAVA—6.7; CAVB—7.0; CAVI—6.0; CAVII—6.8; CAIX—6.6; CAXII—6.8; CAXIII—8.0; CAXIV—6.1. […] The pKa values were calculated as described previously in [28, 52] by normalizing the absorbance, plotting it as a function of pH, then fitting to the Henderson–Hasselbalch equation using the least square method (Figure S105).
Since the pKa values were only able to be measured for compound group 26–36, due to universal buffer pH limitations, intrinsic thermodynamic parameters were not calculated for compounds 2(a,b)–25(a,b), only for compounds 26–36 using experimentally obtained pKa values when possible and using the average pKa value mentioned above for compounds not measured.

CAXII [11] = target: T3, CAXII; assay: biochemical; type: binding
CAXIV = target: T11, CAXIV (Homo sapiens, UniProt Q9ULX7); assay: Fluorescent thermal shift assay (FTSA), CAXIV; type: binding;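 further: recombinant human CA XIV from E. coli, ANS-based thermal shift: Kd_obs fitted from melting temperature versus ligand concentration, ΔGint from Kd_obs corrected for deprotonated sulfonamide and Zn-water fractions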
T11 construct: made in house; host or cells: E. coli
T11 sequence (Q9ULX7 16-337): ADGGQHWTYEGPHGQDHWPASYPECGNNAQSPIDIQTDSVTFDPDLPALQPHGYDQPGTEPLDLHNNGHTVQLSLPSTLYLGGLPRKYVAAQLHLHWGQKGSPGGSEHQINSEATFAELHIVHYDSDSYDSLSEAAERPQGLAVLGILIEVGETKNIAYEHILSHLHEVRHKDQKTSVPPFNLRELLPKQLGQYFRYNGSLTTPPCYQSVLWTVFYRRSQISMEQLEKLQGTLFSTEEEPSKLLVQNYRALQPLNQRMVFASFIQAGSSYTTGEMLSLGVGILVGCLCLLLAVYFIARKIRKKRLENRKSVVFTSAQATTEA
Experimental: as §1, §2, §6, §4, §5

CAIX [12] = target: T4, CAIX; assay: biochemical; type: binding
Experimental: as §1, §2, §3, §4, §5

CAII [13] = target: T2, CAII; assay: Isothermal titration calorimetry (ITC), CAII; type: binding; conditions: pH 7.0, 37 °C, read-out: Observed Dissociation Constant (Kd_obs), CAII, ITC data in brackets
CAVI = target: T12, CAVI (Homo sapiens, UniProt P23280); assay: Fluorescent thermal shift assay (FTSA), CAVI; type: binding;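 further: human CAVI expressed in mammalian cells, ANS fluorescence tracked during thermal unfolding, melting temperature fitted against ligand concentration, intrinsic values corrected for deprotonated sulfonamide and Zn-bound water fractions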
T12 construct: made in house
T12 sequence (P23280 21-290 limits assumed): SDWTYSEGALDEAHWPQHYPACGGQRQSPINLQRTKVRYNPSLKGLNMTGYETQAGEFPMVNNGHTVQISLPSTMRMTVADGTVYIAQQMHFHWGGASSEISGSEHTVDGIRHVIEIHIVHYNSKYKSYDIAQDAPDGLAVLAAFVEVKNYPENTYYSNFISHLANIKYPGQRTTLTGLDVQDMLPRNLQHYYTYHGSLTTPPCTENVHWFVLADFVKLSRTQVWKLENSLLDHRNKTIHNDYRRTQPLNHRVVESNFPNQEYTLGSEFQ

SMILES: NS(=O)(=O)c1ccc(N(CCC(=O)O)c2nc(-c3ccc(Cl)cc3)cs2)cc1 [Compound 35]
- Kd (CAXIII [1]): 530 nM
- Kd (CAII [2]): 100 nM
- Kd (CAXII [3]): 200 nM
- Kd (CAIX [4]): 560 nM
- Kd (CAI [5]): 25 nM

SMILES: COC(=O)CCN(c1ccc(S(N)(=O)=O)cc1)c1nc(C)cs1 [Compound 28, Methyl 3-((4-Methylthiazol-2-yl)(4-sulfamoylphenyl)amino)propanoate]
- Intrinsic Gibbs energy change (ΔGint), CAII (CAII [6]; 37 °C, calculated (Equation 5)): -15.3 kcal/mol
- Kd (CAII [6]; FTSA, pH 7.0, 37 °C, read-out: Observed Dissociation Constant (Kd_obs), CAII): 45 nM
- Intrinsic Gibbs energy change (ΔGint), CAI (CAI [7]; 37 °C, calculated (Equation 5)): -15 kcal/mol
- Kd (CAI [7]; FTSA, pH 7.0, 37 °C, read-out: Observed Dissociation Constant (Kd_obs), CAI): 37 nM
- Intrinsic Gibbs energy change (ΔGint), CAXIII (CAXIII [8]): -13.8 kcal/mol
- Kd (CAXIII [9]): 250 nM
- Kd (CAIII): ≥ 200000 nM
- Intrinsic Gibbs energy change (ΔGint), CAVB (CAVB; 37 °C, calculated (Equation 5)): -15.2 kcal/mol
- Kd (CAVB; FTSA, pH 7.0, 37 °C, read-out: Observed Dissociation Constant (Kd_obs), CAVB): 46 nM
- Intrinsic Gibbs energy change (ΔGint), CAVII (CAVII; 37 °C, calculated (Equation 5)): -15.1 kcal/mol
- Kd (CAVII; FTSA, pH 7.0, 37 °C, read-out: Observed Dissociation Constant (Kd_obs), CAVII): 77 nM
- Intrinsic Gibbs energy change (ΔGint), CAVA (CAVA; 37 °C, calculated (Equation 5)): -11.2 kcal/mol
- Kd (CAVA; FTSA, 200 µM the weakest detectable Kd_obs, read-out: Kd_obs, CAVA): 50000 nM
- Intrinsic Gibbs energy change (ΔGint), CAIV (CAIV; 37 °C, calculated (Equation 5)): -13.6 kcal/mol
- Kd (CAIV; FTSA, pH 7.0, 37 °C, read-out: Observed Dissociation Constant (Kd_obs), CAIV): 1100 nM
- pKa [10]: 10.1
- melting point: 72 to 73 °C
- Intrinsic Gibbs energy change (ΔGint), CAXII (CAXII [11]; 37 °C, calculated (Equation 5)): -14.3 kcal/mol
- Kd (CAXII [11]; FTSA, pH 7.0, 37 °C, read-out: Observed Dissociation Constant (Kd_obs), CAXII): 250 nM
- Intrinsic Gibbs energy change (ΔGint), CAXIV (CAXIV; 37 °C, calculated (Equation 5)): -16.4 kcal/mol
- Kd (CAXIV; FTSA, pH 7.0, 37 °C, read-out: Observed Dissociation Constant (Kd_obs), CAXIV): 29 nM
- Intrinsic Gibbs energy change (ΔGint), CAIX (CAIX [12]; 37 °C, calculated (Equation 5)): -15.8 kcal/mol
- Kd (CAIX [12]; FTSA, pH 7.0, 37 °C, read-out: Observed Dissociation Constant (Kd_obs), CAIX): 33 nM
- Kd (CAII [13]): 59 nM
- Intrinsic Gibbs energy change (ΔGint), CAVI (CAVI; 37 °C, calculated (Equation 5)): -13.2 kcal/mol
- Kd (CAVI; FTSA, pH 7.0, 37 °C, read-out: Observed Dissociation Constant (Kd_obs), CAVI): 7100 nM
